Reference: PubChem BioAssay (NCI)
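Protocol summary: plate cells (96-well), add compound at 5 concentrations, incubate 48 h, interpolate endpoints linearly. GI50 is the concentration that inhibits growth by half. TGI denotes the concentration required for complete inhibition of growth.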

Legend:
Experiment in all cases: growth of human tumour cells (NCI), 48 h
IGROV1 ovarian = tested on: IGROV1 ovarian
HL-60(TB) leukemia = tested on: HL-60(TB) leukemia
NCI-H522 lung = tested on: NCI-H522 lung
LOX IMVI melanoma = tested on: LOX IMVI melanoma
EKVX NSCLC = tested on: EKVX NSCLC
NCI-H23 lung = tested on: NCI-H23 lung
SW-620 colon = tested on: SW-620 colon
MDA-MB-435 = tested on: MDA-MB-435
CAKI-1 renal = tested on: CAKI-1 renal
K-562 leukemia = tested on: K-562 leukemia

| SMILES | GI50 (IGROV1 ovarian) [µM] | TGI (IGROV1 ovarian) [µM] | GI50 (HL-60(TB) leukemia) [µM] | TGI (HL-60(TB) leukemia) [µM] | GI50 (NCI-H522 lung) [µM] | TGI (NCI-H522 lung) [µM] | GI50 (LOX IMVI melanoma) [µM] | TGI (LOX IMVI melanoma) [µM] | GI50 (EKVX NSCLC) [µM] | TGI (EKVX NSCLC) [µM] | GI50 (NCI-H23 lung) [µM] | TGI (NCI-H23 lung) [µM] | GI50 (SW-620 colon) [µM] | TGI (SW-620 colon) [µM] | GI50 (MDA-MB-435) [µM] | TGI (MDA-MB-435) [µM] | GI50 (CAKI-1 renal) [µM] | TGI (CAKI-1 renal) [µM] | GI50 (K-562 leukemia) [µM] | TGI (K-562 leukemia) [µM] |
| --- | --- | --- | --- | --- | --- | --- | --- | --- | --- | --- | --- | --- | --- | --- | --- | --- | --- | --- | --- | --- |
| O=S(=O)(NC1=NCCN1C(=S)SN1CCn2c1nsc2=S)c1ccc(Oc2ccccc2)cc1 | 31.8 | > 100 | 2.78 | 11.3 | 26.2 | 69 | 51 | > 100 | > 100 | > 100 | 43 | > 100 | 67 | > 100 | 30.4 | > 100 | > 100 | > 100 |  |  |
| COC(=O)c1c[nH]c2cc(OC(C)C)c(OC(C)C)cc2c1=O | > 100 | > 100 | > 100 | > 100 | > 100 | > 100 | > 100 | > 100 | > 100 | > 100 | > 100 | > 100 | > 100 | > 100 | > 100 | > 100 | > 100 | > 100 | > 100 | > 100 |
| Nc1[nH]nc2nc(-c3cc(Cl)ccc3Cl)cc(-c3ccc(F)cc3)c12 | 19 | 48.7 |  |  | 14.4 | 31.5 | 19.3 | 38 | 17.5 | 58.3 | 28.8 | 72.1 | 25.4 | 68.7 | 30.3 | 56 | 26.9 | > 100 | 43.9 | > 100 |
| CC12OC(CC(O)C1O)n1c3ccccc3c3c4c(c5c6ccccc6n2c5c31)C(=O)N(CCN1CCOCC1)C4=O (stereo not drawn) | 0.98 | 8.65 | 0.989 | 7.08 | 0.704 | 3.63 | 0.425 | 1.29 | 1.48 | 8.94 | 1.05 | 4.87 | 0.626 | 7.42 | 1.46 | 7.56 | 1.02 | 5.43 | 1.25 | 10.4 |
| COc1cc(OCc2ccccc2)c2c(CCC(=O)O)cc(=O)oc2c1 (tested in a mixture with another compound) |  | > 100 |  | 93.7 |  | > 100 |  | > 100 |  | > 100 |  | > 100 |  | > 100 |  | > 100 |  | > 100 |  | > 100 |
| COc1cc2c(cc1OC)C(C(CCCCCC(CCC(C)C)C1NCCc3cc(OC)c(OC)cc31)CCC(C)C)NCC2 (stereo not drawn) | 2.08 | 3.94 | 0.878 | 2.55 | 1.72 | 3.24 | 0.194 | 0.408 | 1.49 | 3.2 | 1.66 | 3.18 | 0.193 | 0.387 | 0.516 | 2.25 | 1.55 | 3.19 | 0.201 | 0.441 |
| CN(C)c1ccc(/C=C(\C#N)c2cc3ccccc3[nH]2)cc1 | 1.6 | > 100 | 0.455 | > 100 | 0.542 | > 100 | 0.692 | > 100 | 2.94 | > 100 | 3.21 | > 100 | 0.39 | 61.9 | 0.228 | 0.641 | 1.6 | > 100 |  |  |
| CCc1nc(C)cn1C(=O)OCc1nc2nc(Cl)nc(N3CCOCC3)c2[nH]1 | 0.501 | 1.86 | 0.451 | 3.15 | 1.37 | 3.37 | 1.02 | 2.33 | 1.43 | 3.07 | 1.55 | 3.35 | 1.11 | 2.69 | 1.36 | 2.71 | 0.406 | 1.71 | 0.703 | > 100 |
| C=C1c2nc3ccccc3n2C=C(c2cccc(Cl)c2)N1Cc1ccc(OC)cc1 | 0.471 | 15.8 | 0.193 | 0.639 | 0.221 | 1.1 | 0.878 | 21.5 | 1.07 | 12.8 | 0.77 | > 35.7 | 0.441 | > 78.2 | 0.158 |  |  | 4.71 | 0.29 | 5.25 |
| NCCCNc1nc2ccccc2c2c(=O)c3cc(F)ccc3sc12 | 1.42 | 2.9 |  |  | 1.64 | 3.45 | 1.43 | 2.83 | 1.57 | 3.01 | 1.64 | 3.19 | 1.64 | 3.27 | 1.75 | 3.27 | 1.41 | 2.75 |  |  |
